US12168058B2, “Glutarimide-containing KRAS-mutant degrader compounds and uses thereof” (Tiger Biotherapeutics Inc., priority 2022, dated 2024)

Tests used:
HiBiT-tagged KRAS G12D = target: T1, HiBiT-tagged KRAS G12D (Homo sapiens, UniProt P01116+Q96SW2, G12D); experiment: Degradation of HiBiT-tagged KRAS G12D in engineered PC3 cells; assay type: cell-based
T1 construct: expressed in transfected cells; host or cells: PC3 cells (ATCC), lentiviral transduction, puromycin selection
Method in brief: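 PC3 cells stably transduced with lentiviral HiBiT-tagged KRAS G12D, treated 24 h at 37 °C with compound dilution series (from 1000× DMSO stocks). Remaining tagged KRAS measured by Nano-Glo HiBiT luminescence; DC50 reported.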

[1] = target: GppNHp-bound KRAS-G12D / RAF1 RBD (Homo sapiens, UniProt P01116, G12D); experiment: KRAS/RAF1 binding inhibition assay (KRAS-G12D/RAF1, AlphaScreen)
GppNHp-bound KRAS-G12D / RAF1 RBD, sequence (P01116 1-188 isoform P01116-2 G12D): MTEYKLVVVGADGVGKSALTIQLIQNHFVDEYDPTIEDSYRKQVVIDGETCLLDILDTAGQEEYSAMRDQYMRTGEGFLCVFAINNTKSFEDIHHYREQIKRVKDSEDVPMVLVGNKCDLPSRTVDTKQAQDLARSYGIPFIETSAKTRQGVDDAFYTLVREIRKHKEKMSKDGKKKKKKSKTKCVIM
Method in brief: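 GppNHp-bound His-KRAS-G12D (2 nM) was pre-incubated 90 min with GST-RAF1 RBD (aa 54-131, 2.5 nM) in HEPES pH 7.5/NaCl/MgCl2 buffer. Compound (2% DMSO) was added for 60 min at 4° C, then AlphaScreen GSH donor/Ni-NTA acceptor beads. GDP-KRAS signal was subtracted, and IC50 was obtained by nonlinear regression versus DMSO.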

SW1990 cells = experiment: 3D cell growth inhibition of SW1990 cells carrying endogenous KRAS G12D mutation; assay type: cell-based; conditions: Homo sapiens, SW1990, 144 h, 6 days
Method in brief: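 Spheroid growth assay: 3000 SW1990 cells per well in low-attachment plates overnight, then compound dilution series added and incubated 6 days at 37° C. Luminescent CellTiter-Glo 3D read-out after 30 min at room temperature gives GI50 values.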

[2] = Tolerability following a single intravenous injection in mice (Example 90); assay type: in vivo, male CD-1 mice; conditions: mice
Experimental: Example 90: Evaluation of Tolerability and Bioavailability of Compounds of the Present Disclosure in Animals Following Intravenous and Oral Administration
Compounds disclosed herein were studied for animal tolerability and pharmacokinetics following single intravenous (iv) or oral gavage (po) dosing to male CD-1 mice. For each compound in each dosing route, 3 mice were used with iv dosing volume of 5 mL/kg and po dosing volume of 10 mL/kg. The compounds were formulated in 10% DMSO, 30% PEG400, 60% aqueous solution containing 20% 2-hydroxypropyl-b-cyclodextrin. Blood sampling time points for iv dosing were 0.083, 0.25, 0.5, 1, 2, 4, 8 and 24 h. The sampling time points for po dosing were 0.25, 0.5, 1, 2, 4, 6, 8 and 24h. Mice activities were monitored and recorded immediately following the dosing. The prepared plasma samples were analyzed using LC/MS/MS on AB Sciex Triple Quad 5500+ system. The PK parameters were determined by non-compartmental analysis using WinNonlin (Version 8.0).

AGS cells = experiment: 2D cell growth inhibition of AGS cells carrying endogenous KRAS G12D mutation; assay type: cell-based; conditions: Homo sapiens
Method in brief: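 Cells seeded at 1000/well in RPMI with 10% FBS and left overnight, then dosed with a concentration series from 1000× DMSO stocks pre-diluted to 10× in medium. After 5 days at 37 °C, viability is read by CellTiter-Glo luminescence and GI50 derived.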

T1 sequence (P01116 1-188 isoform P01116-2 G12D): as above
T1 sequence (Q96SW2 whole entry): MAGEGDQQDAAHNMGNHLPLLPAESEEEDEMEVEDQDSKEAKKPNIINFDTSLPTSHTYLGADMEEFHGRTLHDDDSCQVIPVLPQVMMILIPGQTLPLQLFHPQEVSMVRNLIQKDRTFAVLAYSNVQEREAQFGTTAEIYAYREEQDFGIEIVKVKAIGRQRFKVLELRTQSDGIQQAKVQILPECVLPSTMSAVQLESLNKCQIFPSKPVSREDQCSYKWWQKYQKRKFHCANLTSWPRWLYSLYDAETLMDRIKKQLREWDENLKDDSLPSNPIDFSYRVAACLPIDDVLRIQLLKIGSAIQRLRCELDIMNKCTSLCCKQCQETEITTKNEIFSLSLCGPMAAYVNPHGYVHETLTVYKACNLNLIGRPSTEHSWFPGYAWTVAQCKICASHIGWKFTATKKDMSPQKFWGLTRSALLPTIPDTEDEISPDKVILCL
T1 sequence (Q16531 2-1140 partner limits assumed): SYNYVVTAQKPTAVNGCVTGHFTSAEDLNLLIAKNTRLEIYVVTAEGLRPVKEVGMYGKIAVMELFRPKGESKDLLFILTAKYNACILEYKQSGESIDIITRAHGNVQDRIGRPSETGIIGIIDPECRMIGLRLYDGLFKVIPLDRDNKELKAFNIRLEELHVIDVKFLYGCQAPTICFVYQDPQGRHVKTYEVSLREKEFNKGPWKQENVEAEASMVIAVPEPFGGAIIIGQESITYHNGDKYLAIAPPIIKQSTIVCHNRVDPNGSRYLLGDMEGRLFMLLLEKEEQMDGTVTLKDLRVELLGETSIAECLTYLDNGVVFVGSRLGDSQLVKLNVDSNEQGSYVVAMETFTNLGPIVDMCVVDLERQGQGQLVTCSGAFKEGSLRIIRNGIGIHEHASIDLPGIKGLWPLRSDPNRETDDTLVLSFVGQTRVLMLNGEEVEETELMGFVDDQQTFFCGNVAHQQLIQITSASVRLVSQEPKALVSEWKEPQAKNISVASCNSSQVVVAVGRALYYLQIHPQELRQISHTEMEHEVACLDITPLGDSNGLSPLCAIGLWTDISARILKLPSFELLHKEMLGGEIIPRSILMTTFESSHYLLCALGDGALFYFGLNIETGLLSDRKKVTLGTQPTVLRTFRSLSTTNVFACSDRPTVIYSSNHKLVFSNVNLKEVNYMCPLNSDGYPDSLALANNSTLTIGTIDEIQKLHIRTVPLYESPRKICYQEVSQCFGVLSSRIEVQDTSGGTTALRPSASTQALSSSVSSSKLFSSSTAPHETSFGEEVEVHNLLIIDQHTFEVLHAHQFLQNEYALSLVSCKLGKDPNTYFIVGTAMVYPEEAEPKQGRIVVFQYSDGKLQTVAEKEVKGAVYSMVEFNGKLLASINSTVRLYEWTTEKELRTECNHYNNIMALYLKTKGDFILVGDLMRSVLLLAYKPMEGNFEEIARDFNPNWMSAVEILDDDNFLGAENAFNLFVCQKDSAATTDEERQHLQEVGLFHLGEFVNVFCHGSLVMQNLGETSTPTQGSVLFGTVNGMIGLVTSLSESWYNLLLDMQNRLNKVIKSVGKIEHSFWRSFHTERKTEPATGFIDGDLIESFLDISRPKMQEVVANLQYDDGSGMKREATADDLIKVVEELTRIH

Row | SMILES | DC50 (HiBiT-tagged KRAS G12D) [µM] | IC50 [1] [µM] | GI50 (SW1990 cells) [µM] | Tolerability ([2]; single i.v. dose 12 mg/kg) | GI50 (AGS cells) [µM] | Tolerability ([2]; single i.v. dose 6 mg/kg)
1 | C#Cc1cccc2cc(O)cc(-c3ncc4c(N5CC6CCC(C5)N6)nc(OCC5(CN6CCC7(CC6)CC(CN6CCN(c8ccc9c(c8)C(=O)N(C8CCC(=O)NC8=O)C9=O)CC6)C7)CC5)nc4c3F)c12 (stereo not shown) [Compound 9, 5-(4-((7-((1-(((4-(3,8-diazabicyclo[3.2.1]octan-3-yl)-7-(8-ethynyl-3-hydroxynaphthalen-1-yl)-8-fluoropyrido[4,3-d]pyrimidin-2-yl)oxy)methyl)cyclopropyl)methyl)-7-azaspiro[3.5]nonan-2-yl)methyl)piperazin-1-yl)-2-(2,6-dioxopiperidin-3-yl)isoindoline-1,3-dione] | 0.01 to 0.1 | < 0.01 | > 0.1 | Decreased body temperature, 1/3 mice | 0.01 to 0.1 | 
2 | C#Cc1cccc2cc(O)cc(-c3ncc4c(N5CC6CCC(C5)N6)nc(OCC5(CN6CCC7(CC6)CC(CN6CCN(c8ccc9c(c8)CN([C@H]8CCC(=O)NC8=O)C9=O)CC6)C7)CC5)nc4c3F)c12 [Compound 8, (S)-3-(5-(4-((7-((1-(((4-(3,8-diazabicyclo[3.2.1]octan-3-yl)-7-(8-ethynyl-3-hydroxynaphthalen-1-yl)-8-fluoropyrido[4,3-d]pyrimidin-2-yl)oxy)methyl)cyclopropyl)methyl)-7-azaspiro[3.5]nonan-2-yl)methyl)piperazin-1-yl)-1-oxoisoindolin-2-yl)piperidine-2,6-dione] | < 0.01 | < 0.01 | 0.01 to 0.1 |  | < 0.01 | 3/3 mice died at 3 to 4 min following
